Measured values: ChEMBL document CHEMBL6078700, “Synthesis of novel deuterated EGFR/ALK dual-target inhibitors and their activity against non-small cell lung cancer” (Eur J Med Chem, 2025)
pIC50: −log10 of the molar value.

How the values were obtained:
[1] = Oral bioavailability in Sprague-Dawley rat at 10 mg/kg; assay type: ADME, organism-based; settings: in vivo
NCI-H1975 [2] = experiment: Induction of cell cycle arrest in human NCI-H1975 cells assessed as accumulation at S phase at 5 nM incubated for 24 hrs by PI/RNase staining based flow cytometry (reference value: 17.1 %); assay type: functional
[3] = Cmax in Sprague-Dawley rat at 10 mg/kg, po; assay type: ADME, organism-based; settings: in vivo
NCI-H1975 [4] = experiment: Induction of apoptosis in human NCI-H1975 cells assessed as late apoptotic cells at 10 nM incubated for 48 hrs by allo-Phycocyanin-Annexin V staining based flow cytometry (reference value: 4.08 %); assay type: functional
NCI-H1975 [5] = experiment: Induction of apoptosis in human NCI-H1975 cells assessed as necrotic cells at 10 nM incubated for 48 hrs by allo-Phycocyanin-Annexin V staining based flow cytometry (reference value: 0.031 %); assay type: functional
[6] = Antiproliferative activity against human THLE-3 cells incubated for 48 hrs by CCK8 assay; assay type: toxicity, cell-based; settings: thle-3, 48 h
NCI-H1975 [7] = experiment: Induction of apoptosis in human NCI-H1975 cells assessed as necrotic cells at 1 nM incubated for 48 hrs by allo-Phycocyanin-Annexin V staining based flow cytometry (reference value: 0.031 %); assay type: functional
NCI-H1975 [8] = experiment: Induction of cell cycle arrest in human NCI-H1975 cells assessed as accumulation at S phase at 1 nM incubated for 24 hrs by PI/RNase staining based flow cytometry (reference value: 17.1 %); assay type: functional
NCI-H1975 [9] = experiment: Induction of apoptosis in human NCI-H1975 cells assessed as late apoptotic cells at 5 nM incubated for 48 hrs by allo-Phycocyanin-Annexin V staining based flow cytometry (reference value: 4.08 %); assay type: functional
NCI-H1975 [10] = experiment: Induction of cell cycle arrest in human NCI-H1975 cells assessed as accumulation at G2/M phase at 10 nM incubated for 24 hrs by PI/RNase staining based flow cytometry (reference value: 32.71 %); assay type: functional
NCI-H522 = experiment: Antiproliferative activity against human NCI-H522 cells expressing wild-type EGFR/ALK incubated for 48 hrs by CCK8 assay; settings: nci-h522
L02 = experiment: Antiproliferative activity against human L02 cells incubated for 48 hrs by CCK8 assay; assay type: toxicity, cell-based; settings: l02, 48 h
[11] = Tmax in Sprague-Dawley rat at 10 mg/kg, po; assay type: ADME, organism-based; settings: in vivo
NCI-H1975 [12] = experiment: Antitumor activity against human NCI-H1975 cells xenografted in BALB/c-nu mouse at 15 mg/kg, po administered daily orally for 21 days relative to control; assay type: functional; settings: Mus musculus, NCI-H1975, po, 504 h, time 21 day, read-out: TGI
[13] = Antiproliferative activity against human HLF1 cells incubated for 48 hrs by CCK8 assay; assay type: toxicity, cell-based; settings: hlf1, 48 h
BaF3 = experiment: Antiproliferative activity against mouse BaF3 cells expressing EML4-ALK fusion incubated for 48 hrs by CCK8 assay; settings: baf3
NCI-H1975 [14] = experiment: Induction of apoptosis in human NCI-H1975 cells assessed as early apoptotic cells at 10 nM incubated for 48 hrs by allo-Phycocyanin-Annexin V staining based flow cytometry (reference value: 2.27 %); assay type: functional
NCI-H1975 [15] = experiment: Antitumor activity against human NCI-H1975 cells xenografted in BALB/c-nu mouse at 30 mg/kg, po administered daily orally for 21 days relative to control; assay type: functional; settings: Mus musculus, NCI-H1975, po, 504 h, time 21 day, read-out: TGI
[16] = Half life in Sprague-Dawley rat at 1 mg/kg, iv; assay type: ADME, organism-based; settings: in vivo
NCI-H1975 [17] = experiment: Induction of cell cycle arrest in human NCI-H1975 cells assessed as accumulation at G2/M phase at 5 nM incubated for 24 hrs by PI/RNase staining based flow cytometry (reference value: 32.71 %); assay type: functional
NCI-H1975 [18] = experiment: Induction of apoptosis in human NCI-H1975 cells assessed as early apoptotic cells at 5 nM incubated for 48 hrs by allo-Phycocyanin-Annexin V staining based flow cytometry (reference value: 2.27 %); assay type: functional
[19] = MRT (0 to t) in Sprague-Dawley rat at 10 mg/kg, po; assay type: ADME, organism-based; settings: in vivo
[20] = Antiproliferative activity against human NCI-H1975 cells expressing EGFR mutation incubated for 48 hrs by CCK8 assay; settings: nci-h1975
[21] = Apparent oral clearance in Sprague-Dawley rat at 1 mg/kg, iv; assay type: ADME, organism-based; settings: in vivo
NCI-H1975 [22] = experiment: Induction of apoptosis in human NCI-H1975 cells assessed as necrotic cells at 5 nM incubated for 48 hrs by allo-Phycocyanin-Annexin V staining based flow cytometry (reference value: 0.031 %); assay type: functional
HK-2 = experiment: Antiproliferative activity against human HK-2 cells incubated for 48 hrs by CCK8 assay; assay type: toxicity, cell-based; settings: hk-2, 48 h
NCI-H1975 [23] = experiment: Induction of cell cycle arrest in human NCI-H1975 cells assessed as accumulation at S phase at 10 nM incubated for 24 hrs by PI/RNase staining based flow cytometry (reference value: 17.1 %); assay type: functional
NCI-H1975 [24] = experiment: Induction of apoptosis in human NCI-H1975 cells assessed as viable cells at 5 nM incubated for 48 hrs by allo-Phycocyanin-Annexin V staining based flow cytometry (reference value: 93.6 %); assay type: functional; settings: Homo sapiens, NCI-H1975, read-out: Activity
[25] = Half life in Sprague-Dawley rat at 10 mg/kg, po; assay type: ADME, organism-based; settings: in vivo
NCI-H1975 [26] = experiment: Induction of cell cycle arrest in human NCI-H1975 cells assessed as accumulation at G2/M phase at 1 nM incubated for 24 hrs by PI/RNase staining based flow cytometry (reference value: 32.71 %); assay type: functional
NCI-H1975 [27] = experiment: Induction of apoptosis in human NCI-H1975 cells assessed as viable cells at 1 nM incubated for 48 hrs by allo-Phycocyanin-Annexin V staining based flow cytometry (reference value: 93.6 %); assay type: functional; settings: read-out: Activity
NCI-H2228 = experiment: Antiproliferative activity against human NCI-H2228 cells expressing EML4-ALK fusion incubated for 48 hrs by CCK8 assay; settings: nci-h2228
NCI-H1975 [28] = experiment: Antitumor activity against human NCI-H1975 cells xenografted in BALB/c-nu mouse at 5 mg/kg, po administered daily orally for 21 days relative to control; assay type: functional; settings: Mus musculus, NCI-H1975, po, 504 h, time 21 day, read-out: TGI
[29] = Apparent volume of distribution during terminal phase in Sprague-Dawley rat at 1 mg/kg, iv; assay type: ADME, organism-based; settings: in vivo
NCI-H1975 [30] = experiment: Induction of cell cycle arrest in human NCI-H1975 cells assessed as accumulation at G0/G1 phase at 10 nM incubated for 24 hrs by PI/RNase staining based flow cytometry (reference value: 50.19 %); assay type: functional
[31] = Tmax in Sprague-Dawley rat at 1 mg/kg, iv; assay type: ADME, organism-based; settings: in vivo
NCI-H1975 [32] = experiment: Induction of cell cycle arrest in human NCI-H1975 cells assessed as accumulation at G0/G1 phase at 1 nM incubated for 24 hrs by PI/RNase staining based flow cytometry (reference value: 50.19 %); assay type: functional
NCI-H1975 [33] = experiment: Induction of apoptosis in human NCI-H1975 cells assessed as viable cells at 10 nM incubated for 48 hrs by allo-Phycocyanin-Annexin V staining based flow cytometry (reference value: 93.6 %); assay type: functional; settings: read-out: Activity
NCI-H1975 [34] = experiment: Induction of apoptosis in human NCI-H1975 cells assessed as late apoptotic cells at 1 nM incubated for 48 hrs by allo-Phycocyanin-Annexin V staining based flow cytometry (reference value: 4.08 %); assay type: functional
NCI-H1975 [35] = experiment: Induction of cell cycle arrest in human NCI-H1975 cells assessed as accumulation at G0/G1 phase at 5 nM incubated for 24 hrs by PI/RNase staining based flow cytometry (reference value: 50.19 %); assay type: functional
NCI-H1975 [36] = experiment: Induction of apoptosis in human NCI-H1975 cells assessed as early apoptotic cells at 1 nM incubated for 48 hrs by allo-Phycocyanin-Annexin V staining based flow cytometry (reference value: 2.27 %); assay type: functional

SMILES: [2H]C([2H])([2H])C([2H])([2H])[S+]([O-])c1ccccc1Nc1nc(Nc2cc(NC(=O)C=C)c(N(C)CCN(C)C)cc2OC)ncc1Cl (single isomer, unassigned; (-))
- bioavailability [1]: 44.1%
- Activity (NCI-H1975 [2]): 3.78%
- Cmax [3]: 169 ng/mL
- Activity (NCI-H1975 [4]): 20.5%
- Activity (NCI-H1975 [5]): 0.22%
- Activity [6]: Non-toxic
- Activity (NCI-H1975 [7]): 0.071%
- Activity (NCI-H1975 [8]): 12.5%
- Activity (NCI-H1975 [9]): 14.3%
- Activity (NCI-H1975 [10]): 28.2%
- pIC50 (NCI-H522): 5.71
- Activity (L02): Non-toxic
- Tmax [11]: 0.5 h
- inhibition in vivo at 15 mg/kg (NCI-H1975 [12]): 93.2%
- Activity [13]: Non-toxic
- pIC50 (BaF3): 8.62
- Activity (NCI-H1975 [14]): 32.5%
- inhibition in vivo at 30 mg/kg (NCI-H1975 [15]): 97.2%
- half-life [16]: 1.06 h
- Activity (NCI-H1975 [17]): 28.91%
- Activity (NCI-H1975 [18]): 22.8%
- MRT last [19]: 3.57 h
- pIC50 [20]: 8.97
- CL/F [21]: 63.7 mL/min/kg
- Activity (NCI-H1975 [22]): 0.16%
- Activity (HK-2): Non-toxic
- Activity (NCI-H1975 [23]): 3.84%
- viability at 0.005 µM (NCI-H1975 [24]): 62.8%
- half-life [25]: 4.65 h
- Activity (NCI-H1975 [26]): 22.93%
- viability at 0.001 µM (NCI-H1975 [27]): 75.4%
- pIC50 (NCI-H2228): 7.67
- inhibition in vivo at 5 mg/kg (NCI-H1975 [28]): 80.3%
- Vz/F [29]: 5.9 L/kg
- Activity (NCI-H1975 [30]): 68.32%
- Tmax [31]: 1.98 min
- Activity (NCI-H1975 [32]): 64.57%
- viability at 0.01 µM (NCI-H1975 [33]): 46.8%
- Activity (NCI-H1975 [34]): 7.98%
- Activity (NCI-H1975 [35]): 67.31%
- Activity (NCI-H1975 [36]): 16.6%
